Reference: patent publication EP1090023B1 (GLAXO GROUP LIMITED, priority 1998, dated 1999)

Columns and labels:
Format in all cases: cell-based
adenosine 1 = biological target: T1, adenosine 1 (Homo sapiens, UniProt P30542); test: Agonist activity against adenosine receptor subtypes, CHO cells with cAMP response element/SPAP reporter (forskolin-enhanced cAMP); conditions: ratio to EC50 of NECA; transfected CHO cells; effect on forskolin-enhanced cAMP via SPAP
T1 sequence (P30542 1-326): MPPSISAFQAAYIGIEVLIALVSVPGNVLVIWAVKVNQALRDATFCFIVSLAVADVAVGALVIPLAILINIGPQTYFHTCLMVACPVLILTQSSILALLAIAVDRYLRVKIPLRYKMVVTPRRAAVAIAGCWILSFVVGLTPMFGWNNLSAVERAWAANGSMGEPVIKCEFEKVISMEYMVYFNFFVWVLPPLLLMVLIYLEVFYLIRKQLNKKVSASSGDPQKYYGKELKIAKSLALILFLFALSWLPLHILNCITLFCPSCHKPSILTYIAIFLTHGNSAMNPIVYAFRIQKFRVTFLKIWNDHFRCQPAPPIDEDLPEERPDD
Procedure: (§1) Compounds of the invention were tested for in vitro and in vivo biological activity in accordance with the following screens: • (1) Agonist activity against adenosine 2a, adenosine 1 and adenosine 3 receptor subtypes.
(§2) Agonist selectivity of compounds against other human adenosine receptors was determined using Chinese hamster ovary (CHO) cells transfected with the gene for the relevant human adenosine receptor following a method based on that of Castanon and Spevak, 1994 . The CHO cells were also transfected with cyclic AMP response elements promoting the gene for secreted placental alkaline phosphatase (SPAP) (Wood, 1995). The effect of test compounds was determined by their effects on basal levels of cAMP (A2a) or on forskolin-enhanced cAMP (A1 and A3) as reflected by changes in levels of SPAP. EC50 values for compounds were then determined as a ratio to that of the non-selective agonist N-ethyl carboxamide adenosine (NECA).

adenosine 3 = biological target: T2, adenosine 3 (Homo sapiens, UniProt P0DMS8); test: as above; conditions: ratio to EC50 of NECA; transfected CHO cells; effect on forskolin-enhanced cAMP via SPAP
T2 sequence (P0DMS8 1-318): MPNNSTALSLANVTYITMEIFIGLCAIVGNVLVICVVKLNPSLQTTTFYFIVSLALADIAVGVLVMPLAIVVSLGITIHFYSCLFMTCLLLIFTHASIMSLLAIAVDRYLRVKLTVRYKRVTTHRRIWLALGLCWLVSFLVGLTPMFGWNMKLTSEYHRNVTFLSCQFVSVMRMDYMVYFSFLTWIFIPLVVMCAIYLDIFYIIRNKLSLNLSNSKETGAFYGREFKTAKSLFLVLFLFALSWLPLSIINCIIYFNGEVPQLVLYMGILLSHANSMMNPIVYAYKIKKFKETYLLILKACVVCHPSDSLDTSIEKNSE
Procedure: as §1, §2

adenosine 2a = adenosine 2a (Homo sapiens, UniProt P29274); test: Agonist activity against adenosine receptor subtypes, CHO cells with cAMP response element/SPAP reporter (basal cAMP); conditions: ratio to EC50 of NECA; transfected CHO cells; effect on basal cAMP via SPAP
Procedure: as §1, §2

Sequence of adenosine 2a (P29274 whole entry): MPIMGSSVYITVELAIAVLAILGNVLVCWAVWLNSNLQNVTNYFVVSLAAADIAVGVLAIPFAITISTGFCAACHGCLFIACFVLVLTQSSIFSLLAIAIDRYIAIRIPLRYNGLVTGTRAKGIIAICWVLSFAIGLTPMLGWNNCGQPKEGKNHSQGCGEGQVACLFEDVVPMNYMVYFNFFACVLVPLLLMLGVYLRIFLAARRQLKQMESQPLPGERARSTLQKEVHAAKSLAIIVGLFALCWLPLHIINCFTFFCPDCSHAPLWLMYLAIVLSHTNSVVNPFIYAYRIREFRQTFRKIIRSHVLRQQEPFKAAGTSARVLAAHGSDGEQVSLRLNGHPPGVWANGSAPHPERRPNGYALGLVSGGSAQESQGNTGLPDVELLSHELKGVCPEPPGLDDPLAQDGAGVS

| Compound | A1 (EC50 values as a ratio of that of NECA) (adenosine 1) | A3 (EC50 values as a ratio of that of NECA) (adenosine 3) | A2a (EC50 values as a ratio of that of NECA) (adenosine 2a) |
| --- | --- | --- | --- |
| CCn1cnc([C@H]2O[C@@H](n3cnc4c(NCC(c5ccccc5)c5ccccc5)nc(NCCN5CCCCC5)nc43)[C@H](O)[C@@H]2O)n1.O=CO.O=CO [Example 32, (2R,3R,4S,5R)-2-[6-(2,2-Diphenyl-ethylamino)-2-(2-piperidin-1-yl-ethylamino)-purin-9-yl]-5-(1-ethyl-1H-[1,2,4]triazol-3-yl)-tetrahydro-furan-3,4-diol diformate] | 1217.4 | >206 | 11.85 |
| CCc1nnc([C@H]2O[C@@H](n3cnc4c(NCC(c5ccccc5)c5ccccc5)nc(N[C@H](CO)Cc5ccccc5)nc43)[C@H](O)[C@@H]2O)[nH]1.O=CO [Example 5, (2R,3R,4S,5R)-2-[6-(2,2-Diphenyl-ethylamino)-2-(1S-hydroxymethyl-2-phenyl-ethylamino)-purin-9-yl]-5-(5-ethyl-4H-[1,2,4]triazol-3-yl)-tetrahydro-furan-3,4-diol formate] | >=5194 | >319 | 1 |
| (2R,3R,4S,5S)-2-[6-(2,2-Diphenyl-ethylamino)-2-(2-piperidin-1-yl-ethylamino)-purin-9-yl]-5-[5-methyl-[1,3,4]thiadiazol-2-yl)-tetrahydro-furan-3,4-diol diformate [Example 28] | 3371 | >245 | 37.3 |
| CCn1cnc(C2OC(n3cnc4c(NCC(c5ccccc5)c5ccccc5)nc(NC5CCC(N)CC5)nc43)C(O)C2O)n1.O=CO.O=CO [Example 30, (2R,3R,4S,5R)-2-[2-(trans-4-Amino-cyclohexylamino)-6-(2,2-diphenyl-ethylamino)-purin-9-yl]-5-(1-ethyl-1H-[1,2,4]triazol-3-yl)-tetrahydro-furan-3,4-diol diformate] | 2948.1 | >206 | 13.27 |
| CCc1nnc([C@H]2O[C@@H](n3cnc4c(NCC(c5ccccc5)c5ccccc5)nc(N[C@H](CO)Cc5ccccc5)nc43)[C@H](O)[C@@H]2O)o1.O=CO [Example 21, (2R,3R,4S,5S)-2-[6-(2,2-Diphenyl-ethylamino)-2-(1S-hydroxymethyl-2-phenyl-ethylamino)-purin-9-yl]-5-(5-ethyl-[1,3,4]oxadiazol-2-yl)-tetrahydro-furan-3,4-diol formate] | 568.06 | >173 | 3.04 |
| CCn1cnc([C@H]2O[C@@H](n3cnc4c(NCC(c5ccccc5)c5ccccc5)nc(NCCc5cn(C)cn5)nc43)[C@H](O)[C@@H]2O)n1.O=CO.O=CO [Example 31, (2R,3R,4S,5R)-2-{6-(2,2-Diphenyl-ethylamino)-2-[2-(1-methyl-1H-imidazol-4-yl)-ethylamino]-purin-9-yl}-5-(1-ethyl-1H-[1,2,4]triazol-3-yl)-tetrahydro-furan-3,4-diol diformate] | 1753.5 | >206 | 8.79 |
| CCc1nc([C@H]2O[C@@H](n3cnc4c(NCC(c5ccccc5)c5ccccc5)nc(NCCc5cn(C)cn5)nc43)[C@H](O)[C@@H]2O)no1.O=CO [Example 13, (2R,3R,4S,5R)-2-{6-(2,2-Diphenyl-ethylamino)-2-[2-(1-methyl-1H-imidazol-4-yl)-ethylamino]-purin-9-yl}-5-(5-ethyl-[1,2,4]oxadiazol-3-yl)-tetrahydro-furan-3,4-diol formate] | 6620 | >194 | 1.29 |
| CCc1nnc([C@H]2O[C@@H](n3cnc4c(NCC(c5ccccc5)c5ccccc5)nc(N[C@H](CO)C(C)C)nc43)[C@H](O)[C@@H]2O)[nH]1.O=CO [Example 7, (2R,3R,4S,5R)-2-[6-(2,2-Diphenyl-ethylamino)-2-(1S-hydroxymethyl-2-methyl-propylamino)-purin-9-yl]-5-(5-ethyl-4H-[1,2,4]triazol-3-yl)-tetrahydro-furan-3,4-diol formate] | 5327 | >183 | 2.94 |
| CC(C)c1nnc([C@H]2O[C@@H](n3cnc4c(NCC(c5ccccc5)c5ccccc5)nc(N[C@H](CO)Cc5ccccc5)nc43)[C@H](O)[C@@H]2O)[nH]1.O=CO [Example 11, (2R,3R,4S,5R)-2-[6-(2,2-Diphenyl-ethylamino)-2-(1S-hydroxymethyl-2-phenyl-ethylamino)-purin-9-yl]-5-(5-isopropyl-4H-[1,2,4]triazol-3-yl)-tetrahydro-furan-3,4-diol formate] | 2202 | >257 | 17.97 |
| CCc1nnc([C@H]2O[C@@H](n3cnc4c(NCC(c5ccccc5)c5ccccc5)nc(N[C@@H]5CCNC5)nc43)[C@H](O)[C@@H]2O)o1.O=CO [Example 26, (2R,3R,4S,5S)-2-[6-(2,2-Diphenyl-ethylamino)-2-(pyrrolidin-3R-ylamino)-purin-9-yl]-5-(5-ethyl-[1,3,4]oxadiazol-2-yl)-tetrahydro-furan-3,4-diol formate] | 432 | >162 | 5.57 |
| (2R,3R,4S,5R)-2-[6-(2,2-Diphenyl-ethylamino)-2-(1R-hydroxy-2-phenyl-ethylamino)-purin-9-yl]-5-(1-ethyl-1H-[1,2,4]triazol-3-yl)-tetrahydro-furan-3,4-diol formate [Example 35] | 5261.1 | >240 | 6.33 |
| CCc1nnc([C@H]2O[C@@H](n3cnc4c(NCC(c5ccccc5)c5ccccc5)nc(N[C@H]5CC[C@H](N)CC5)nc43)[C@H](O)[C@@H]2O)[nH]1.O=CO [Example 6, (2R,3R,4S,5R)-2-[2-(trans-4-Amino-cyclohexylamino)-6-(2,2-diphenyl-ethylamino)-purin-9-yl]-5-(5-ethyl-4H-[1,2,4]triazol-3-yl)-tetrahydro-furan-3,4-diol formate] | 6739 | >183 | 12.3 |
| CCc1nc([C@H]2O[C@@H](n3cnc4c(NCC(c5ccccc5)c5ccccc5)nc(NCCN5CCCCC5)nc43)[C@H](O)[C@@H]2O)no1.O=CO [Example 14, (2R,3R,4S,5R)-2-[6-(2,2-Diphenyl-ethylamino)-2-(2-piperidin-1-yl-ethylamino)-purin-9-yl]-5-(5-ethyl-[1,2,4]oxadiazol-3-yl)-tetrahydro-furan-3,4-diol formate] | >=4762 | >190 | 12.86 |
| Cc1nnc([C@H]2O[C@@H](n3cnc4c(NCC(c5ccccc5)c5ccccc5)nc(N[C@H]5CC[C@H](N)CC5)nc43)[C@H](O)[C@@H]2O)[nH]1.O=CO [Example 4, (2R,3R,4S,5R)-2-[2-(trans-4-Amino-cyclohexylamino)-6-(2,2-diphenyl-ethylamino)-purin-9-yl]-5-(5-methyl-4H-[1,2,4]triazol-3-yl)-tetrahydro-furan-3,4-diol formate] | 4686 | >1052 | 5.1 |
| CCn1cnc(C2OC(n3cnc4c(NCC(c5ccccc5)c5ccccc5)nc(NC5CCNC5)nc43)C(O)C2O)n1.O=CO.O=CO [Example 34, (2R,3R,4S,5R)-2-[6-(2,2-Diphenyl-ethylamino)-2-(pyrrolidin-3R-ylamino)-purin-9-yl]-5-(1-ethyl-1H-[1,2,4]triazol-3-yl)-tetrahydro-furan-3,4-diol diformate] | 1980.8 | >231 | 10.97 |
| CCC(CC)Nc1nc(NCCc2cn(C)cn2)nc2c1ncn2[C@@H]1O[C@H](c2nnc(C3CC3)o2)[C@@H](O)[C@H]1O.O=CO.O=CO [Example 37] | 581.9 | >173 | 6.39 |
